{"source": "PubChem BioAssay AID1963828", "about": "(Molecular Pharmacology Branch, DTP, NCI, 2024);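 note: spheroids exposed to compounds for 7 days before readout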;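 for viability, T/C: 100% = DMSO vehicle control viability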", "test_system": "991263-137-R1-J2-PDC complex spheroid viability", "test": "Anticancer human tumor 991263-137-R1-J2-PDC patient-derived colon adenocarcinoma cell line growth inhibition [POLQ]", "conditions": "for IC50: curve of first compound; for viability, T/C: stronger effect = lower value", "description": "Multicellular complex tumor spheroid response to Polymerase (POL) inhibitors (novobiocin, ART-558, RP6685) in combination with a variety of drugs and investigational agents in selected tumor cell lines\nThe POL inhibitors (novobiocin, ART-558, and RP6685) were evaluated both individually and in combination with standard of care and investigational anticancer small molecules within a complex spheroid model of solid tumors. . Complex spheroids include a stromal component modeled by human endothelial cells (HUVEC) and fibroblasts modeled by human mesenchymal stem cells (MSCs). The concentration ranges selected for each drug and investigational agent were based upon clinically achievable concentrations if the clinical Cmax of the agent was known.\nCompounds. The drugs and investigational agents: novobiocin (NSC847541), ART-558 (NSC835418), RP-6685 (NSC848927), peposertib (NSC802822), ceralasertib (NSC780249), elimusertib (NSC800525), camonsertib (NSC841442), AZD-1390 (NSC803789), olaparib (NSC753686), talazoparib (NSC767125), rucaparib (NSC756644), sotorasib (NSC818433), MRTX-1133 (NSC836407), SN-38 (NSC673596), topotecan (NSC609699), epotoside (NSC141540), doxorubicin (NSC123127), gemcitabine (NSC613327), 5-fluorouracil (NSC19893), paclitaxel (NSC125973), vemurafenib (NSC761431), MSA-2 (NSC828583), SN-011 (NSC837082), adavosertib (NSC754352), prexasertib (NSC758257), carboplatin (NSC241240) and oxaliplatin (NSC266046), were obtained from the National Cancer Institute (NCI) Developmental Therapeutics Program Chemical Repository (21). The FDA-approved anticancer drug set is available from the Developmental Therapeutics Program at https://dtp.cancer.gov/organization/dscb/obtaining/. […] The stock solutions were prepared in dimethyl sulfoxide (DMSO, Sigma-Aldrich, St. Louis, MO, cat. D2650), except for the platinum compounds which were prepared in saline (Quality Biological, Gaithersburg, MD, cat. 114-055-101), at 800-fold the tested concentration and stored at -70 degrees C prior to their use. All drugs and investigational agents were tested over a range starting from a high concentration at or near the clinical Cmax and decreasing in half-log increments. If the clinical Cmax for an agent had not been determined, the highest concentration tested was 10 microM, except for SN-38, which was tested at a high concentration of 1 microM.\nCell Culture. All cells were maintained in an incubator at 37 degrees C and 5% CO2 with 95% humidity. The PDC lines were cultured according to standard operating procedures established by the NCI PDMR (https://pdmr.cancer.gov). Table 3 of the manuscript, lists the cell lines along with the number of the three cell types plated to form the mct-spheroids and media for tumor cell growth. After thawing, all PDC lines, except 997537-175-T-J1-PDC and 415267-285-R-J2-PDC, were cultured in Matrigel-coated flasks prepared with a working solution of 1X Ham's F-12 nutrient mix, without supplementation (Thermo Fisher Scientific, cat. 11765054), 100 U/mL penicillin-streptomycin (Thermo Fisher Scientific, cat. 15140122), and 2.5% Matrigel (Corning Inc., Corning, NY, cat. 354248) for the first three passages. The two PDC lines 997537-175-T-J1-PDC and 415267-285-R-J2-PDC were cultured on uncoated flasks. The 857933-349-R-J2-PDC line was cultured in 6C/Colon 1B media containing advanced DMEM/F-12 (Thermo Fisher Scientific, cat. 12634028), 10 mM HEPES (Thermo Fisher Scientific, cat. 15630080), 1X GlutaMAX supplement (Thermo Fisher Scientific, cat. 35050061), 0.1 mg/mL primocin (InvivoGen, San Diego, CA, cat. ant-pm-2), 10% defined fetal bovine serum, heat inactivated (HyClone Laboratories Inc., Logan, UT, cat. SH30070.03HI), 50% L-WRN conditioned media (ATCC, cat. CRL-3276), 1.25 mM N-Acetyl-L-cysteine (Sigma-Aldrich, cat. A9165), 10 mM nicotinamide (Sigma-Aldrich, cat. N0636), 1X B-27 supplement (Thermo Fisher Scientific, cat. 17504044), 1X N-2 supplement (Thermo Fisher Scientific, cat. […]"}
{"smiles": "CCc1cc2c(N3CCc4c(cc(Cn5ccnc5)cc4-c4cn(C)nc4C(F)(F)F)C3=O)ccnc2c(OC)n1", "note": "+ COC1C(OC(N)=O)C(O)C(Oc2ccc3c(O)c(NC(=O)c4ccc(O)c(CC=C(C)C)c4)c(=O)oc3c2C)OC1(C)C", "values": [{"measurement": "IC50", "setting": "second compound 0.0316 µM", "result": "> 10", "unit": "µM"}, {"measurement": "IC50", "setting": "second compound 0.1 µM", "result": "> 10", "unit": "µM"}, {"measurement": "IC50", "setting": "second compound 0.316 µM", "result": "> 10", "unit": "µM"}, {"measurement": "IC50", "setting": "second compound 1 µM", "result": "> 10", "unit": "µM"}, {"measurement": "IC50", "setting": "second compound 3.16 µM", "result": "> 10", "unit": "µM"}, {"measurement": "IC50", "setting": "second compound 10 µM", "result": "> 10", "unit": "µM"}, {"measurement": "viability, T/C", "setting": "second compound 0.0316 µM, first compound 0.0316 µM", "result": 99.5, "unit": "%"}, {"measurement": "viability, T/C", "setting": "second compound 0.0316 µM, first compound 0.1 µM", "result": 104, "unit": "%"}, {"measurement": "viability, T/C", "setting": "second compound 0.0316 µM, first compound 0.316 µM", "result": 110, "unit": "%"}, {"measurement": "viability, T/C", "setting": "second compound 0.0316 µM, first compound 1 µM", "result": 87.6, "unit": "%"}, {"measurement": "viability, T/C", "setting": "second compound 0.0316 µM, first compound 3.16 µM", "result": 102, "unit": "%"}, {"measurement": "viability, T/C", "setting": "second compound 0.0316 µM, first compound 10 µM", "result": 86.7, "unit": "%"}, {"measurement": "viability, T/C", "setting": "second compound 0.1 µM, first compound 0.0316 µM", "result": 104, "unit": "%"}, {"measurement": "viability, T/C", "setting": "second compound 0.1 µM, first compound 0.1 µM", "result": 110, "unit": "%"}, {"measurement": "viability, T/C", "setting": "second compound 0.1 µM, first compound 0.316 µM", "result": 87.4, "unit": "%"}, {"measurement": "viability, T/C", "setting": "second compound 0.1 µM, first compound 1 µM", "result": 100, "unit": "%"}, {"measurement": "viability, T/C", "setting": "second compound 0.1 µM, first compound 3.16 µM", "result": 90.8, "unit": "%"}, {"measurement": "viability, T/C", "setting": "second compound 0.1 µM, first compound 10 µM", "result": 81, "unit": "%"}, {"measurement": "viability, T/C", "setting": "second compound 0.316 µM, first compound 0.0316 µM", "result": 105, "unit": "%"}, {"measurement": "viability, T/C", "setting": "second compound 0.316 µM, first compound 0.1 µM", "result": 108, "unit": "%"}, {"measurement": "viability, T/C", "setting": "second compound 0.316 µM, first compound 0.316 µM", "result": 97.1, "unit": "%"}, {"measurement": "viability, T/C", "setting": "second compound 0.316 µM, first compound 1 µM", "result": 104, "unit": "%"}, {"measurement": "viability, T/C", "setting": "second compound 0.316 µM, first compound 3.16 µM", "result": 95.4, "unit": "%"}, {"measurement": "viability, T/C", "setting": "second compound 0.316 µM, first compound 10 µM", "result": 99.9, "unit": "%"}, {"measurement": "viability, T/C", "setting": "second compound 1 µM, first compound 0.0316 µM", "result": 101, "unit": "%"}, {"measurement": "viability, T/C", "setting": "second compound 1 µM, first compound 0.1 µM", "result": 107, "unit": "%"}, {"measurement": "viability, T/C", "setting": "second compound 1 µM, first compound 0.316 µM", "result": 93.9, "unit": "%"}, {"measurement": "viability, T/C", "setting": "second compound 1 µM, first compound 1 µM", "result": 86.3, "unit": "%"}, {"measurement": "viability, T/C", "setting": "second compound 1 µM, first compound 3.16 µM", "result": 102, "unit": "%"}, {"measurement": "viability, T/C", "setting": "second compound 1 µM, first compound 10 µM", "result": 90.7, "unit": "%"}, {"measurement": "viability, T/C", "setting": "second compound 3.16 µM, first compound 0.0316 µM", "result": 99.2, "unit": "%"}, {"measurement": "viability, T/C", "setting": "second compound 3.16 µM, first compound 0.1 µM", "result": 122, "unit": "%"}, {"measurement": "viability, T/C", "setting": "second compound 3.16 µM, first compound 0.316 µM", "result": 113, "unit": "%"}, {"measurement": "viability, T/C", "setting": "second compound 3.16 µM, first compound 1 µM", "result": 96.4, "unit": "%"}, {"measurement": "viability, T/C", "setting": "second compound 3.16 µM, first compound 3.16 µM", "result": 106, "unit": "%"}, {"measurement": "viability, T/C", "setting": "second compound 3.16 µM, first compound 10 µM", "result": 107, "unit": "%"}, {"measurement": "viability, T/C", "setting": "second compound 10 µM, first compound 0.0316 µM", "result": 113, "unit": "%"}, {"measurement": "viability, T/C", "setting": "second compound 10 µM, first compound 0.1 µM", "result": 106, "unit": "%"}, {"measurement": "viability, T/C", "setting": "second compound 10 µM, first compound 0.316 µM", "result": 108, "unit": "%"}, {"measurement": "viability, T/C", "setting": "second compound 10 µM, first compound 1 µM", "result": 109, "unit": "%"}, {"measurement": "viability, T/C", "setting": "second compound 10 µM, first compound 3.16 µM", "result": 101, "unit": "%"}, {"measurement": "viability, T/C", "setting": "second compound 10 µM, first compound 10 µM", "result": 91.3, "unit": "%"}]}
